US10591445B2, “Methods for analysis and resolution of preparations of dianhydrogalactitol and derivatives or analogs thereof” (Del Mar Pharmaceuticals (BC) Ltd., priority 2015, dated 2020)
Values belong to the compound of their own block, whether it stands above or below them.

Key:
[1] = Solution stability of DAG sample solution (HPLC-ELSD); type: physicochemical; settings: 8 mg/mL in acetonitrile/water (85:15)
Method: The test sample solutions (nominal 8 mg/mL) are prepared as follows. The sample preparation for DAG drug substance or API can be as follows. Accurately weigh, in duplicate, about 80 mg of DAG API sample into clean 10 mL volumetric flasks. Dissolve DAG API sample in approximately 5 mL of diluent, diluted to volume with diluent, and mix. The sample preparation for DAG drug product (lyophilized powder, 40 mg/vial) can be as follows: Clean and remove the closure of the vial. Reconstitute the lyophilized vial with 5.0 mL diluent to yield an 8 mg/mL solution. Prepare samples in duplicate (using 2 vials). The sample solutions can be stored up to 48 hrs at 2-8° C. and 52 hrs at ambient laboratory conditions.
With respect to solution stability, the recovery of the aged solutions should be within 85%-115% of the initial assay. […]
The experimental approach for determining solution stability was as follows: For a standard solution, a dulcitol standard solution was prepared at 1.0% of DAG nominal conc. in one replicate and placed the solution under ambient laboratory conditions and refrigerated conditions (2-8° C.), respectively, using 1% Linearity standard solutions). […] For time points of less than 24 hours, solution stability is evaluated against fresh standards. The recovery of the aged solutions is evaluated. […] For time points of less than 24 hours, solution stability is evaluated against fresh standards.

[2] = Solution stability of dulcitol standard solution (HPLC-ELSD); type: physicochemical; settings: for Assay / Concentration: standard solution
Method: The standard solutions can be stored up to 48 hrs at 2-8° C. and can be stored up to 52 hrs at ambient laboratory condition. The standard solutions can be used to generate a standard curve as described further below.
With respect to solution stability, the recovery of the aged solutions should be within 85%-115% of the initial assay. The absolute difference should be no more than 0.2% for an impurity at ≤1.0%. For an impurity >1.0%, the result of the aged solution should be within 80%-120% of the original. No new impurities at ≥1.0% should be observed.
The experimental approach for determining solution stability was as follows: For a standard solution, a dulcitol standard solution was prepared at 1.0% of DAG nominal conc. in one replicate and placed the solution under ambient laboratory conditions and refrigerated conditions (2-8° C.), respectively, using 1% Linearity standard solutions). The solution was reanalyzed at different time intervals, such as 2 hours, 4 hours, 8 hours, 24 hours and 48 hours. For time points of less than 24 hours, solution stability is evaluated against fresh standards. The recovery of the aged solutions is evaluated. For sample solutions, a sample solution at a specified DAG nominal concentration was prepared in one replicate and placed under laboratory conditions at ambient temperature or under refrigerated conditions (2-8° C.). The solution was reanalyzed at different time intervals, such as 2 hours, 4 hours, 8 hours, 24 hours and 48 hours. For time points of less than 24 hours, solution stability is evaluated against fresh standards.

[3] = ambient laboratory conditions, 0 h
[4] = ambient laboratory conditions, 2 h
[5] = ambient laboratory conditions, 4 h
[6] = ambient laboratory conditions, 8 h
[7] = ambient laboratory conditions, 25 h
[8] = ambient laboratory conditions, 48 h

Time the sample solutions can be stored ([1]; 2-8° C.): up to 48 hrs
Time the sample solutions can be stored ([1]; ambient laboratory conditions): ≤ 52 h
SMILES: OC(C1CO1)C(O)C1CO1 (stereo not shown) [DAG, 1,2:5,6 dianhydrogalactitol]

Time the standard solutions can be stored ([2]; 2-8° C.): up to 48 hrs
Time the standard solutions can be stored ([2]; ambient laboratory condition): up to 52 hrs
Assay ([2]; 2-8° C., 0 h): 109.233%
Concentration ([2]; 2-8° C., 0 h): 89.5 µg/mL
Assay ([2]; 2-8° C., 2 h): 109.076%
Concentration ([2]; 2-8° C., 2 h): 89.4 µg/mL
Assay ([2]; 2-8° C., 4 h): 109.164%
Concentration ([2]; 2-8° C., 4 h): 89.5 µg/mL
Assay ([2]; 2-8° C., 8 h): 108.302%
Concentration ([2]; 2-8° C., 8 h): 88.8 µg/mL
Assay ([2]; 2-8° C., 25 h): 109.056%
Concentration ([2]; 2-8° C., 25 h): 89.4 µg/mL
Assay ([2]; 2-8° C., 48 h): 108.947%
Concentration ([2]; 2-8° C., 48 h): 89.3 µg/mL
Assay [2, 3]: 109.944%
Concentration [2, 3]: 89.8 µg/mL
Assay [2, 4]: 109.778%
Concentration [2, 4]: 89.7 µg/mL
Assay [2, 5]: 109.059%
Concentration [2, 5]: 89.1 µg/mL
Assay [2, 6]: 108.590%
Concentration [2, 6]: 88.7 µg/mL
Assay [2, 7]: 110.553%
Concentration [2, 7]: 90.3 µg/mL
Assay [2, 8]: 108.986%
Concentration [2, 8]: 89.1 µg/mL
SMILES: OC[C@@H](O)[C@H](O)[C@H](O)[C@@H](O)CO [Dulcitol, dulcitol]
